In patent US20250051762A1, “PLATFORM USING DNA-ENCODED SMALL MOLECULE LIBRARIES AND RNA SELECTION TO DESIGN SMALL MOLECULES THAT TARGET RNA” (University of Florida Research Foundation, Incorporated, priority 2021, published 2025):

Experiments:
[1] = test system: fully paired RNA (loop mutated to a base pair); assay: Binding affinity by MST, Cy5-labeled fully paired RNA
Method: (§1) Binding affinity measurements: Binding affinities were measured by microscale thermophoresis (MST), performed on a Monolith NT.115 system (NanoTemper Technologies) with Cy5-labeled RNAs. These RNAs include: the 5′GAG/3′CCC SEQ ID NO: 16 loop at pri-miR-27a's Drosha site (Sequence:/5′-Cy5/rCrUrGrArGrGrUrGrArArArCrArUrCrCrCrArG SEQ ID NO: 17; Dharmacon), a related internal loop not selected by 9. 5′CAG/3′GCC SEQ ID NO: 17 loop (Sequence:/5′-Cy5/rCrUrCrArGrGrUrGrArArArCrArUrCrCrGrArG SEQ ID NO: 16; Dharmacon), and an RNA in which the loop is mutated to a base pair (Sequence:/5-Cy5/rCrUrGrArGrGrUrGrArArArCrArUrCrUrCrArG SEQ ID NO: 16; Dharmacon).
(§2) Briefly, Cy5-labeled RNA (10 nM) was prepared in 1× Binding Buffer and folded by heating at 60° C. for 5 min and then slowly cooling to room temperature. After cooling, Tween-20 was added to a final concentration of 0.1% (v/v). Compound solutions were prepared separately in 20 μL of 1× Binding Buffer at a final concentration of 5 μM (1% (v/v) DMSO), followed by 1:1 serial dilutions in 1× Binding Buffer. RNA and compound solutions were then mixed 1:1 by volume to a total of 20 μL.
(§3) Samples were incubated for 20 min at room temperature and then loaded into premium capillaries (NanoTemper Tech, Cat #MO-K025). The following parameters were used for MST measurements: 5-20% LED power (adjusted to keep fluorescence intensity between 2000 and 8000), 80% MST power, Laser-On time=30 s, Laser-Off time=25 s. The resulting data were analyzed by calculating the change in thermophoresis as a function of compound concentration and fitted by Equation 1, a one site binding model, in NanoTemper Tech's MST analysis software to yield the dissociation constant (Kd):
(§4) Where F is the concentration of fluorescently labeled RNA; unbound and bound refer to the thermophoresis signal at completely unbound and bound state of RNA, respectively; c is the concentration of the compound; f (c) is the thermophoresis signal at compound concentration of c; and Kd is the dissociation constant.

[2] = target: 5′GAG/3′CCC loop at pri-miR-27a's Drosha site; assay: Binding affinity by microscale thermophoresis (MST), Cy5-labeled RNA; set-up: species or system human
Method: as §1, §2, §3, §4

pri-miR-27a = assay: RT-qPCR of pri- and mature miR-27a in MCF-7 cells; format: cell-based, human; details: MCF-7, RT-qPCR
Method: (§5) Cell lines. Compounds were tested in MDA-MB-231 TNBC cells (HTB-26, ATCC), LNCaP metastatic prostate cancer cells (gifted from Junli Luo lab), MCF-7 (HTB-22, ATCC) breast cancer cells, HeLa cervical adenocarcinoma cells (CCL-2, ATCC), and MCF-10a, a model of healthy breast epithelial cells (CRL-10317, ATCC).
(§6) Cell culture and compound treatment. All cells were maintained at 37° C. with 5% CO2. MDA-MB-231 and LNCaP cells were cultured in RPMI 1640 medium with L-glutamine & 25 mM HEPES (Corning) supplemented with 10% (v/v) fetal bovine serum (FBS; Sigma) and 1× (v/v) Antibiotic-Antimycotic solution (Corning). MCF-7 and HeLa cells were cultured in DMEM medium with 4.5 g/L glucose (Corning), supplemented with 10% FBS, 1× (v/v) Glutagro (Corning), and 1× (v/v) Antibiotic-Antimycotic solution. […]
(§7) Analysis of mRNA abundance: Each cell line was grown as a monolayer in 12- or 24-well plates and treated as described in “Cell culture and compound treatment”. […] Relative abundance of mature miRNAs was calculated by normalizing to RNU6, and relative abundance for pri-miRNAs and mRNAs was calculated by normalizing to 18S ribosomal RNA, using the AAC, method. […]

WT pri-miR-27a = assay: RT-qPCR of miR-27a biogenesis in MCF-10a cells transfected with WT pri-miR-27a; format: cell-based, human; details: WT pri-miR-27a plasmid, 48 h
Text: To gauge the specificity of 9 for pri-miR-27a, inhibition of biogenesis was first studied in a cellular model of healthy breast epithelium, MCF-10a, in which miR-27a expression is not detectable (Ct>31). MCF-10a cells were transfected with a plasmid encoding WT pri-miR-27a or mutant in which the two 5′GAG/3′CCC internal loops at and nearby the Drosha processing site were mutated to base pairs. In the absence of compound treatment, both primary miRNA transcripts were processed similarly, generating mature miR-27a, as determined by RT-qPCR.
as §5
Cell culture and compound treatment. All cells were maintained at 37° C. with 5% CO2. […]
as §7

ZBTB10 = assay: Western blot of ZBTB10 in MDA-MB-231 cells; format: cell-based, human; details: relative to β-actin, 48 h
miR-24-2 = assay: RT-qPCR of mature miR-24-2 in MDA-MB-231 cells; format: cell-based, human
Method: as §5, §6, §7

Question: `C#CCN(CC(N)=O)C(=O)C[C@H](Cc1c[nH]c2ccccc12)NC(=O)[C@@H]1C[C@H](NC(=O)Cn2c(=O)[nH]c3ccccc3c2=O)CN1` [Compound 9] was tested. Which saturable binding [1] did it give?
Answer: Saturable binding was not observed

Question: And the Kd [2]?
Answer: 90 ± 20 nM

Question: What about the “dose with significant inhibition of miR-27a processing” value (pri-miR-27a) of the same molecule?
Answer: 100 nM

Question: And the “mature miR-27a levels” value (WT pri-miR-27a)?
Answer: reduction

Question: What about the pri-miR-27a levels (WT pri-miR-27a) of the same molecule?
Answer: increase

Question: And the ZBTB10 expression (ZBTB10)?
Answer: upregulation

Question: What about the “effect on levels of mature miR-24-2” value (miR-24-2) of the same molecule?
Answer: no effect
